This passage reports IC50 and EC50 results from US10981932B2, “Macrocyclic indole derivatives” (Bayer Aktiengesellschaft, priority 2016, dated 2021).

Structures can show the parent of a compound that is named as a salt. Where two headings read alike, the source gives them in different places.

The target in one data set is MCL-1 (Homo sapiens, UniProt Q07820). Kind of data set: Protein-protein interaction assay MCL-1/Noxa BH3 peptide (MCL-1 assay), TR-FRET. Format: binding. The conditions noted are these: MBP-MCL-1 / Noxa BH3-derived peptide, median. The method, boiled down: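 IC50 came from a 4-parameter fit of the normalized 665/620 nm TR-FRET ratio (anti-MBP Eu-cryptate/streptavidin-XL665). Compounds (0.1 nM–20 μM, duplicates) were preincubated 10 min at 22 °C with 1 nM MBP-MCL-1 in pH 7 Tris/NaCl/KF buffer, then read after 1 h at 22 °C plus overnight at 4 °C.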
(In general: TR-FRET usually uses a lanthanide donor and a delayed reading to cut background.)

In data set [1] the test system is SUDHL10. Kind of data set: Induction of cytotoxicity (CellTiter-Glo, 5 h), SUDHL10. For orientation: ATP-based viability assays read luminescence as a measure of living cells.
The next data set has as its system MV-4-11. Kind of data set: Anti-proliferative effect (CellTiter-Glo, 72 h), MV-4-11. Format: cell-based. The conditions noted are these: Homo sapiens, MV4-11, 72 h, MV-4-11 cells, median, read-out: IC50 antiproliferation assay MV-4-11 [M] (median). A digest of the protocol:
(§1)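 72 h compound treatment, 37 °C humidified; CellTiter-Glo added, 10 min incubation, luminescence read; day 0 plate read in parallel for baseline.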

For data set [2], the system named is SUDHL10. Nature of the data set: Induction of caspase-3/7 activity (Caspase-Glo 3/7), SUDHL10. In kind it is cell-based. The conditions noted are these: caspase-3/7 induction, SUDHL10 cells, 3 h treatment, median. The method, boiled down: (§2)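 DLBCL lines SUDHL5 and SUDHL10 treated with compounds for 3 h at 37 °C; caspase-3/7 activity read by Caspase-Glo 3/7 luminescence. Medium-only background subtracted; EC50 fitted with bottom fixed at 1 and top fixed at the reference compound's maximal induction.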

The subject of data set [3] is SUDHL5. Kind of data set: Induction of caspase-3/7 activity (Caspase-Glo 3/7), SUDHL5. In kind it is cell-based. The conditions noted are these: caspase-3/7 induction, SUDHL5 cells, 3 h treatment, median. The method, boiled down: as §2
The subject of data set [4] is SUDHL5. Nature of the data set: Anti-proliferative effect (CellTiter-Glo, 72 h), SUDHL5. The conditions noted are these: SUDHL5 cells, antiproliferation, median, read-out: Antiproli SUDHL5 [M] (median). Format: cell-based. The method, boiled down: as §1
In another data set the test system is A2780. Nature of the data set: Anti-proliferative effect (CellTiter-Glo, 72 h), A2780. Format: cell-based. The conditions noted are these: A2780 cells, median, read-out: IC50 antiproliferation assay A2780 [M] (median). A digest of the protocol: as §1
For data set [5], the system named is SUDHL5. Nature of the data set: Induction of cytotoxicity (CellTiter-Glo, 5 h), SUDHL5.
Data set [6] concerns SUDHL10. Kind of data set: Anti-proliferative effect (CellTiter-Glo, 72 h), SUDHL10. The conditions noted are these: SUDHL10 cells, antiproliferation, median, read-out: Antiproli SUDHL10 [M] (median). In kind it is cell-based. A digest of the protocol:
as §1

Where [7] appears, read: read-out: Cytotox SUDHL10 [M] (median), SUDHL10 cells, cytotoxicity induction, CellTiter-Glo, 5 h incubation, median.
The mark [8] stands for this setting: read-out: Cytotox SUDHL5 [M] (median), SUDHL5 cells, cytotoxicity induction, CellTiter-Glo, 5 h incubation, median.

Chain of MCL-1 (Q07820 whole entry): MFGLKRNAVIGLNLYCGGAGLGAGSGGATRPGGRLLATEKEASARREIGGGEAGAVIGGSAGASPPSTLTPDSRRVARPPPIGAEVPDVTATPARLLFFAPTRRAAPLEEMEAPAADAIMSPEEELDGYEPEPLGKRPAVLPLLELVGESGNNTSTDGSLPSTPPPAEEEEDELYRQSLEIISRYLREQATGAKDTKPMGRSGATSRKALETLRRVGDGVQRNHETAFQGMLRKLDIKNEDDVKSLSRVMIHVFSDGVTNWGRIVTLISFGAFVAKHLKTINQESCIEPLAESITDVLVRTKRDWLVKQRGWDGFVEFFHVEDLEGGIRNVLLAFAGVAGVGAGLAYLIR

For orientation: EC50 means the concentration at which the effect is half-maximal. A lower EC50 goes with greater potency. For `COCc1nn(C)c2c1-c1cccc3c(CCCOc4cccc5ccccc45)c(C(=O)O)n(c13)CCCCN(C)C2` (single isomer, unassigned; enantiomer 1) [Example 184, 3-(methoxymethyl)-1,14-dimethyl-7-[3-(naphthalen-1-yloxy)propyl]-10,11,12,13,14,15-hexahydro-1H-pyrazolo[3′,4′:8,9][1,6]diazacycloundecino[10,11,1-hi]indole-8-carboxylic acid-N-ethylethanamine Salt (Enantiomer 1)], the IC50 was 0.0016 µM on MCL-1; 2.94e-06 M with SUDHL10 [1] (setting [7]); 1.52e-06 M in the data set with MV-4-11; 1.34e-06 M in the data set on SUDHL5 [4] (72 h incubation); greater than 3.3e-05 M in the data set with A2780 (Homo sapiens, A2780, 72 h); 8.82e-07 M with SUDHL5 [5] (setting [8]). Further, the IC50 in the data set on SUDHL10 [6] (72 h incubation) is 1.2e-06 M. For the same compound, the 50% effective concentration (EC50) was determined as 2.9 µM with SUDHL10 [2] and 0.803 µM with SUDHL5 [3].
As to `Cc1c2c(nn1C)CCCCCCn1c(C(=O)O)c(CCCOc3cccc4ccccc34)c3cccc-2c31` (single isomer, unassigned; enantiomer 1) [Example 191, 2,3-dimethyl-7-[3-(1-naphthyloxy)propyl]-10,11,12,13,14,15-hexahydro-2H-pyrazolo[4′,3′:4,5]azacycloundecino[3,2,1-hi]indole-8-carboxylic acid-N-ethylethanamine Salt (Enantiomer 1)], the IC50 was 0.00273 µM against MCL-1; 5.01e-06 M in the data set on SUDHL10 [1] (setting [7]); 2.58e-06 M in the data set with MV-4-11; 3.23e-06 M with SUDHL5 [4] (72 h incubation); 2.55e-05 M in the data set on A2780 (Homo sapiens, A2780, 72 h); 1.87e-06 M in the data set on SUDHL5 [5] (setting [8]). For the same compound, in the data set on SUDHL10 [6] (Homo sapiens, SU-DHL10, 72 h, 72 h incubation), the IC50 was 4.64e-06 M. Besides, the EC50 amounted to 7.16 µM in the data set on SUDHL10 [2] and 2.09 µM with SUDHL5 [3].
As to `CCCc1nn(C)c2c1-c1c(C)ccc3c(CCCOc4cccc5ccccc45)c(C(=O)O)n(c13)CCCN(C)C2` (single isomer, unassigned; enantiomer 1) [Example 196, 7,9,12-trimethyl-1-[3-(naphthalen-1-yloxy)propyl]-11-propyl-4,5,6,7,8,9-hexahydropyrazolo[3′,4′:7,8][1,5]diazecino[9,10,1-hi]indole-2-carboxylic acid-N-ethylethanamine Salt (Enantiomer 1)], the IC50 against MCL-1 came out at 0.00161 µM; with SUDHL10 [1] (setting [7]), 2.92e-06 M; with MV-4-11, 4.83e-06 M; in the data set on SUDHL5 [4] (72 h incubation), 1.45e-06 M; in the data set on A2780 (Homo sapiens, A2780, 72 h), 1.53e-05 M; in the data set on SUDHL5 [5] (setting [8]), 1.36e-06 M. Moreover, the IC50 with SUDHL10 [6] (72 h incubation) was 2.19e-06 M. In addition, the results for the EC50 in the data set with SUDHL10 [2] and with SUDHL5 [3] were 2.85 µM and 1.39 µM, respectively.
On to `Cc1nn(C)c2c1-c1cccc3c(CCCOc4cccc5ccccc45)c(C(=O)O)n(c13)CCCCOC2` (single isomer, unassigned; enantiomer 1) [Example 317, (+)-1,3-dimethyl-7-[3-(naphthalen-1-yloxy)propyl]-1,10,11,12,13,15-hexahydropyrazolo[4′,3:9,10][1,6]oxazacycloundecino[8,7,6-hi]indole-8-carboxylic Acid (Enantiomer 1)], for which the IC50 against MCL-1 is 0.0115 µM; in the data set with SUDHL10 [1] (Homo sapiens, SU-DHL10, 5 h, read-out: Cytotox SUDHL10 [M] (median), SUDHL10 cells, cytotoxicity induction, CellTiter-Glo, 5 h, median), greater than 3.3e-05 M; in the data set on MV-4-11 it was 2.34e-05 M; in the data set with SUDHL5 [4] (Homo sapiens, SU-DHL-5, 72 h, 72 h) it was 2.71e-05 M; in the data set on A2780 (Homo sapiens, A2780, 72 h), greater than 3.3e-05 M; in the data set on SUDHL5 [5] (Homo sapiens, SU-DHL-5, 5 h, read-out: Cytotox SUDHL5 [M] (median), SUDHL5 cells, cytotoxicity induction, CellTiter-Glo, 5 h, median), 1.55e-05 M. For the same compound, the IC50 in the data set on SUDHL10 [6] (Homo sapiens, SU-DHL10, 72 h, 72 h) is greater than 3.3e-05 M. Besides, the concentration for a half-maximal effect (EC50) was greater than 33 µM in the data set on SUDHL10 [2] (Homo sapiens, SU-DHL10, 3 h) and 24.5 µM with SUDHL5 [3] (Homo sapiens, SU-DHL-5, 3 h).
Take `Cc1cc(OCCCc2c(C(=O)O)n3c4c(cccc24)-c2c(C)nn(C)c2COCCC3)cc(C)c1Cl` (single isomer, unassigned; enantiomer 2) [Example 015, 1-[3-(4-chloro-3,5-dimethylphenoxy)propyl]-9,11-dimethyl-5,6,8,9-tetrahydro-4H-pyrazolo[4′,3′:8,9][1,5]oxazecino[7,6,5-hi]indole-2-carboxylic acid-N-ethylethanamine Salt (Enantiomer 2)]: the IC50 came out at 0.00958 µM against MCL-1; 2.87e-05 M with SUDHL10 [1] (setting [7]); 1.33e-05 M in the data set with MV-4-11; 1.13e-05 M in the data set on SUDHL5 [4] (72 h incubation); 1.23e-05 M in the data set on A2780; 2.1e-05 M in the data set on SUDHL5 [5] (setting [8]). In addition, the IC50 in the data set with SUDHL10 [6] (72 h incubation) stood at 8.48e-06 M. For the same compound, the figures for the EC50 in the data set with SUDHL10 [2] and with SUDHL5 [3] were 29.2 µM and 25.7 µM, respectively.
